# Reference: PubChem BioAssay (NCI)
#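 Compound exposure: 48 hours, 5 concentrations, 96-well plates. Here, GI50 denotes the concentration required for 50% inhibition of growth. TGI denotes the concentration required for complete inhibition of growth.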
# Tests used:
# Test in all cases: growth of human tumour cells (NCI), 48 h
# CAKI-1 renal = tested on: CAKI-1 renal
# MOLT-4 leukemia = tested on: MOLT-4 leukemia
# EKVX NSCLC = tested on: EKVX NSCLC
# OVCAR-5 ovarian = tested on: OVCAR-5 ovarian
# SW-620 colon = tested on: SW-620 colon
# HS 578T breast = tested on: HS 578T breast
# U251 CNS = tested on: U251 CNS
# OVCAR-4 ovarian = tested on: OVCAR-4 ovarian
# UO-31 renal = tested on: UO-31 renal
# HT29 colon = tested on: HT29 colon
# HOP-92 NSCLC = tested on: HOP-92 NSCLC
# A549 NSCLC = tested on: A549 NSCLC
# NCI-H226 lung = tested on: NCI-H226 lung
# HCC-2998 colon = tested on: HCC-2998 colon
# SK-MEL-28 melanoma = tested on: SK-MEL-28 melanoma
# HOP-62 NSCLC = tested on: HOP-62 NSCLC
# UACC-257 melanoma = tested on: UACC-257 melanoma
# RXF 393 renal = tested on: RXF 393 renal
# A498 renal = tested on: A498 renal
# NCI-H23 lung = tested on: NCI-H23 lung
# SF-268 CNS = tested on: SF-268 CNS
# SK-OV-3 ovarian = tested on: SK-OV-3 ovarian
# SR leukemia = tested on: SR leukemia
# 786-0 renal = tested on: 786-0 renal
# RPMI-8226 leukemia = tested on: RPMI-8226 leukemia
# NCI/ADR-RES ovarian = tested on: NCI/ADR-RES ovarian
# SK-MEL-2 melanoma = tested on: SK-MEL-2 melanoma
# HCT-15 colon = tested on: HCT-15 colon
# HL-60(TB) leukemia = tested on: HL-60(TB) leukemia
# IGROV1 ovarian = tested on: IGROV1 ovarian
# SF-295 CNS = tested on: SF-295 CNS
# KM12 colon = tested on: KM12 colon
# K-562 leukemia = tested on: K-562 leukemia
# UACC-62 melanoma = tested on: UACC-62 melanoma
# NCI-H522 lung = tested on: NCI-H522 lung
# T-47D breast = tested on: T-47D breast
# ACHN renal = tested on: ACHN renal
# SN12C renal = tested on: SN12C renal
# MCF7 breast = tested on: MCF7 breast
# HCT-116 colon = tested on: HCT-116 colon
# MDA-MB-435 = tested on: MDA-MB-435
# DU-145 prostate = tested on: DU-145 prostate
# NCI-H460 lung = tested on: NCI-H460 lung
# SK-MEL-5 melanoma = tested on: SK-MEL-5 melanoma
# CCRF-CEM leukemia = tested on: CCRF-CEM leukemia
# COLO 205 colon = tested on: COLO 205 colon
# MDA-MB-231 breast = tested on: MDA-MB-231 breast
# PC-3 prostate = tested on: PC-3 prostate
# SNB-75 CNS = tested on: SNB-75 CNS
# LOX IMVI melanoma = tested on: LOX IMVI melanoma
# M14 melanoma = tested on: M14 melanoma
# TK-10 renal = tested on: TK-10 renal
# BT-549 breast = tested on: BT-549 breast
# OVCAR-8 ovarian = tested on: OVCAR-8 ovarian
# SF-539 CNS = tested on: SF-539 CNS
# SNB-19 CNS = tested on: SNB-19 CNS
# OVCAR-3 ovarian = tested on: OVCAR-3 ovarian
compound,measurement,setting,value
Cc1ccc(-c2c3c(nn2-c2ccc(S(=O)(=O)NC(=O)Nc4ccccc4)cc2)-c2ccccc2C3)cc1,GI50,CAKI-1 renal,15.4 µM
same,TGI,CAKI-1 renal,45.5 µM
same,GI50,MOLT-4 leukemia,5.14 µM
same,TGI,MOLT-4 leukemia,> 100 µM
same,GI50,EKVX NSCLC,18.1 µM
same,TGI,EKVX NSCLC,43.8 µM
same,GI50,OVCAR-5 ovarian,30.1 µM
same,TGI,OVCAR-5 ovarian,97.2 µM
same,GI50,SW-620 colon,12 µM
same,TGI,SW-620 colon,> 100 µM
same,GI50,HS 578T breast,24.1 µM
same,TGI,HS 578T breast,73.9 µM
same,GI50,U251 CNS,17.5 µM
same,TGI,U251 CNS,37.6 µM
same,GI50,OVCAR-4 ovarian,19.7 µM
same,TGI,OVCAR-4 ovarian,51.5 µM
same,GI50,UO-31 renal,8.78 µM
same,TGI,UO-31 renal,24.3 µM
same,GI50,HT29 colon,35.7 µM
same,TGI,HT29 colon,> 100 µM
same,GI50,HOP-92 NSCLC,18.1 µM
same,TGI,HOP-92 NSCLC,44.9 µM
same,GI50,A549 NSCLC,28 µM
same,TGI,A549 NSCLC,> 100 µM
same,GI50,NCI-H226 lung,15.4 µM
same,TGI,NCI-H226 lung,56 µM
same,GI50,HCC-2998 colon,13.6 µM
same,TGI,HCC-2998 colon,37.9 µM
same,GI50,SK-MEL-28 melanoma,21.2 µM
same,TGI,SK-MEL-28 melanoma,46.9 µM
same,GI50,HOP-62 NSCLC,32 µM
same,TGI,HOP-62 NSCLC,> 100 µM
same,GI50,UACC-257 melanoma,18.7 µM
same,TGI,UACC-257 melanoma,39.9 µM
same,GI50,RXF 393 renal,17.9 µM
same,TGI,RXF 393 renal,43.1 µM
same,GI50,A498 renal,19.6 µM
same,TGI,A498 renal,36.6 µM
same,GI50,NCI-H23 lung,15 µM
same,TGI,NCI-H23 lung,37.6 µM
same,GI50,SF-268 CNS,19.1 µM
same,TGI,SF-268 CNS,55.7 µM
same,GI50,SK-OV-3 ovarian,18.2 µM
same,TGI,SK-OV-3 ovarian,48.1 µM
same,GI50,SR leukemia,2.26 µM
same,TGI,SR leukemia,6.92 µM
same,GI50,786-0 renal,22.7 µM
same,TGI,786-0 renal,> 100 µM
same,GI50,RPMI-8226 leukemia,7.22 µM
same,TGI,RPMI-8226 leukemia,69.3 µM
same,GI50,NCI/ADR-RES ovarian,23.1 µM
same,TGI,NCI/ADR-RES ovarian,75.5 µM
same,GI50,SK-MEL-2 melanoma,16.1 µM
same,TGI,SK-MEL-2 melanoma,32.5 µM
same,GI50,HCT-15 colon,15.5 µM
same,TGI,HCT-15 colon,52.2 µM
same,GI50,HL-60(TB) leukemia,24.2 µM
same,TGI,HL-60(TB) leukemia,83.7 µM
same,GI50,IGROV1 ovarian,3.67 µM
same,TGI,IGROV1 ovarian,16.5 µM
same,GI50,SF-295 CNS,34.5 µM
same,TGI,SF-295 CNS,> 100 µM
same,GI50,KM12 colon,18 µM
same,TGI,KM12 colon,51.2 µM
same,GI50,K-562 leukemia,11.1 µM
same,TGI,K-562 leukemia,> 100 µM
same,GI50,UACC-62 melanoma,12.8 µM
same,TGI,UACC-62 melanoma,27.4 µM
same,GI50,NCI-H522 lung,11.7 µM
same,TGI,NCI-H522 lung,30.5 µM
same,GI50,T-47D breast,30.7 µM
same,TGI,T-47D breast,> 100 µM
same,GI50,ACHN renal,14.6 µM
same,TGI,ACHN renal,30.5 µM
same,GI50,SN12C renal,16.9 µM
same,TGI,SN12C renal,35.8 µM
same,GI50,MCF7 breast,20.5 µM
same,TGI,MCF7 breast,> 100 µM
same,GI50,HCT-116 colon,19.2 µM
same,TGI,HCT-116 colon,> 100 µM
same,GI50,MDA-MB-435,28.1 µM
same,TGI,MDA-MB-435,> 100 µM
same,GI50,DU-145 prostate,15.3 µM
same,TGI,DU-145 prostate,33.9 µM
same,GI50,NCI-H460 lung,19.3 µM
same,TGI,NCI-H460 lung,70.2 µM
same,GI50,SK-MEL-5 melanoma,15.1 µM
same,TGI,SK-MEL-5 melanoma,36.5 µM
same,GI50,CCRF-CEM leukemia,2.13 µM
same,TGI,CCRF-CEM leukemia,> 100 µM
same,GI50,COLO 205 colon,19.5 µM
same,TGI,COLO 205 colon,45.9 µM
same,GI50,MDA-MB-231 breast,17.5 µM
same,TGI,MDA-MB-231 breast,55 µM
same,GI50,PC-3 prostate,16 µM
same,TGI,PC-3 prostate,38 µM
same,GI50,SNB-75 CNS,22.9 µM
same,TGI,SNB-75 CNS,66.3 µM
same,GI50,LOX IMVI melanoma,12.3 µM
same,TGI,LOX IMVI melanoma,> 100 µM
same,GI50,M14 melanoma,24.6 µM
same,TGI,M14 melanoma,87.2 µM
same,GI50,TK-10 renal,10.3 µM
same,TGI,TK-10 renal,24.8 µM
same,GI50,BT-549 breast,18.8 µM
same,TGI,BT-549 breast,44.2 µM
same,GI50,OVCAR-8 ovarian,19.1 µM
same,TGI,OVCAR-8 ovarian,52.9 µM
same,GI50,SF-539 CNS,18.2 µM
same,TGI,SF-539 CNS,38.9 µM
same,GI50,SNB-19 CNS,30 µM
same,TGI,SNB-19 CNS,> 100 µM
same,GI50,OVCAR-3 ovarian,32.9 µM
same,TGI,OVCAR-3 ovarian,> 100 µM
